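1) Cells in 96-well plates. 2) Compound, 48 h, 5 concentrations. 3) Linear interpolation between surrounding doses. 4) Unreached endpoint = highest concentration. GI50 marks 50% less growth.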 Activity calls are given as the source filed them. Cut-off read from the data, not from the text of the source: active = GI50 up to about 1.1 µM and inactive = higher.
Experiments:
Assay in all cases: inhibition of tumour cell growth, NCI panel, 48 h
786-0 = test system: 786-0
A498 = test system: A498
A549 = test system: A549
ACHN = test system: ACHN
CAKI-1 = test system: CAKI-1
CCRF-CEM = test system: CCRF-CEM
COLO 205 = test system: COLO 205
DLD-1 = test system: DLD-1
DMS-114 = test system: DMS-114
DMS-273 = test system: DMS-273
DU-145 = test system: DU-145
EKVX = test system: EKVX
HCC 2998 = test system: HCC 2998
HCT-116 = test system: HCT-116
HCT-15 = test system: HCT-15
HL-60 = test system: HL-60
HOP-18 = test system: HOP-18
HOP-92 = test system: HOP-92
HT-29 = test system: HT-29
Hs-578T = test system: Hs-578T
IGROV-1 = test system: IGROV-1
K562 = test system: K562
KM-20L2 = test system: KM-20L2
KM12 = test system: KM12
LOX IMVI = test system: LOX IMVI
LXFL 529 = test system: LXFL 529
M14 = test system: M14
M19-MEL = test system: M19-MEL
MCF7 = test system: MCF7
MDA-MB-231 = test system: MDA-MB-231
MDA-MB-435 = test system: MDA-MB-435
MOLT-4 = test system: MOLT-4
Malme-3M = test system: Malme-3M
NCI-H226 = test system: NCI-H226
NCI-H23 = test system: NCI-H23
NCI-H460 = test system: NCI-H460
NCI-H522 = test system: NCI-H522
NCI/ADR-RES = test system: NCI/ADR-RES
OVCAR-3 = test system: OVCAR-3
OVCAR-4 = test system: OVCAR-4
OVCAR-5 = test system: OVCAR-5
OVCAR-8 = test system: OVCAR-8
PC-3 = test system: PC-3
RPMI-8226 = test system: RPMI-8226
RXF 393 = test system: RXF 393
SF-268 = test system: SF-268
SF-295 = test system: SF-295
SF-539 = test system: SF-539
SK-MEL-28 = test system: SK-MEL-28
SK-MEL-2 = test system: SK-MEL-2
SK-MEL-5 = test system: SK-MEL-5
SK-OV-3 = test system: SK-OV-3
SN12C = test system: SN12C
SNB-19 = test system: SNB-19
SNB-75 = test system: SNB-75
SNB-78 = test system: SNB-78
SR = test system: SR
SW-620 = test system: SW-620
T47D = test system: T47D
TK-10 = test system: TK-10
U-251 = test system: U-251
UACC-257 = test system: UACC-257
UACC-62 = test system: UACC-62
UO-31 = test system: UO-31
XF498 = test system: XF498

SMILES: CC(=O)OCc1cc2c(s1)C(=O)c1sccc1C2=O
- GI50 (786-0): 619 nM (active)
- GI50 (A498): 1820 nM (inactive)
- GI50 (A549): 181 nM (active)
- GI50 (ACHN): 88.1 nM (active)
- GI50 (CAKI-1): 1840 nM (inactive)
- GI50 (CCRF-CEM): 383 nM (active)
- GI50 (COLO 205): 1650 nM (inactive)
- GI50 (DLD-1): 187 nM (active)
- GI50 (DMS-114): 149 nM (active)
- GI50 (DMS-273): 155 nM (active)
- GI50 (DU-145): 33.6 nM (active)
- GI50 (EKVX): 197 nM (active)
- GI50 (HCC 2998): 1780 nM (inactive)
- GI50 (HCT-116): 1740 nM (inactive)
- GI50 (HCT-15): 156 nM
- GI50 (HL-60): 290 nM (active)
- GI50 (HOP-18): 145 nM (active)
- GI50 (HOP-92): 528 nM (active)
- GI50 (HT-29): 650 nM (active)
- GI50 (Hs-578T): 157 nM (active)
- GI50 (IGROV-1): 1460 nM (inactive)
- GI50 (K562): 277 nM (active)
- GI50 (KM-20L2): 2240 nM (inactive)
- GI50 (KM12): 234 nM (active)
- GI50 (LOX IMVI): < 18.2 nM (active)
- GI50 (LXFL 529): 308 nM (active)
- GI50 (M14): < 13.9 nM (active)
- GI50 (M19-MEL): < 10 nM (active)
- GI50 (MCF7): 208 nM (active)
- GI50 (MDA-MB-231): 237 nM (active)
- GI50 (MDA-MB-435): 17.8 nM (active)
- GI50 (MOLT-4): 356 nM (active)
- GI50 (Malme-3M): 272 nM (active)
- GI50 (NCI-H226): 355 nM (active)
- GI50 (NCI-H23): 18 nM (active)
- GI50 (NCI-H460): 175 nM (active)
- GI50 (NCI-H522): 147 nM (active)
- GI50 (NCI/ADR-RES): 200 nM (active)
- GI50 (OVCAR-3): 223 nM (active)
- GI50 (OVCAR-4): 191 nM (active)
- GI50 (OVCAR-5): 190 nM (active)
- GI50 (OVCAR-8): 183 nM (active)
- GI50 (PC-3): 194 nM (active)
- GI50 (RPMI-8226): 239 nM (active)
- GI50 (RXF 393): 157 nM (active)
- GI50 (SF-268): 154 nM (active)
- GI50 (SF-295): 54.1 nM (active)
- GI50 (SF-539): 115 nM (active)
- GI50 (SK-MEL-28): < 38.6 nM (active)
- GI50 (SK-MEL-2): 93.5 nM (active)
- GI50 (SK-MEL-5): 42.6 nM (active)
- GI50 (SK-OV-3): 1720 nM (inactive)
- GI50 (SN12C): 130 nM (active)
- GI50 (SNB-19): 177 nM (active)
- GI50 (SNB-75): 57 nM (active)
- GI50 (SNB-78): 13200 nM (inactive)
- GI50 (SR): 1890 nM (inactive)
- GI50 (SW-620): 104 nM (active)
- GI50 (T47D): 309 nM (active)
- GI50 (TK-10): 1790 nM (inactive)
- GI50 (U-251): 248 nM (active)
- GI50 (UACC-257): 98.6 nM (active)
- GI50 (UACC-62): 166 nM (active)
- GI50 (UO-31): 178 nM (active)

SMILES: Cc1c(C(=O)/C=C/c2ccccc2O)c(=O)n(-c2ccccc2)n1C
- GI50 (786-0): 20400 nM (inactive)
- GI50 (A498): 27500 nM (inactive)
- GI50 (A549): 34000 nM (inactive)
- GI50 (ACHN): 19000 nM (inactive)
- GI50 (CAKI-1): 21800 nM (inactive)
- GI50 (CCRF-CEM): 9550 nM (inactive)
- GI50 (COLO 205): 26400 nM (inactive)
- GI50 (DLD-1): 14300 nM (inactive)
- GI50 (DMS-114): 24600 nM (inactive)
- GI50 (DMS-273): 22200 nM (inactive)
- GI50 (EKVX): 68700 nM (inactive)
- GI50 (HCC 2998): 16000 nM (inactive)
- GI50 (HCT-116): 16500 nM (inactive)
- GI50 (HCT-15): 24200 nM
- GI50 (HOP-92): 28300 nM (inactive)
- GI50 (HT-29): 35500 nM (inactive)
- GI50 (IGROV-1): 42100 nM (inactive)
- GI50 (KM-20L2): 31600 nM (inactive)
- GI50 (KM12): > 10000 nM (inactive)
- GI50 (LOX IMVI): 16900 nM (inactive)
- GI50 (LXFL 529): 16700 nM (inactive)
- GI50 (M19-MEL): 23900 nM (inactive)
- GI50 (MOLT-4): 19300 nM (inactive)
- GI50 (Malme-3M): 19400 nM (inactive)
- GI50 (NCI-H226): 33500 nM (inactive)
- GI50 (NCI-H23): > 10000 nM (inactive)
- GI50 (NCI-H460): 12900 nM (inactive)
- GI50 (NCI-H522): 18100 nM (inactive)
- GI50 (OVCAR-3): 29200 nM (inactive)
- GI50 (OVCAR-5): 66800 nM (inactive)
- GI50 (OVCAR-8): 15600 nM (inactive)
- GI50 (RXF 393): 14200 nM (inactive)
- GI50 (SF-268): 37800 nM (inactive)
- GI50 (SF-295): 14600 nM (inactive)
- GI50 (SF-539): 19800 nM (inactive)
- GI50 (SK-MEL-28): 25100 nM (inactive)
- GI50 (SK-MEL-2): 18000 nM (inactive)
- GI50 (SK-MEL-5): 12300 nM (inactive)
- GI50 (SK-OV-3): 36100 nM (inactive)
- GI50 (SN12C): 21000 nM (inactive)
- GI50 (SNB-19): 43800 nM (inactive)
- GI50 (SNB-75): 50600 nM (inactive)
- GI50 (SNB-78): 39400 nM (inactive)
- GI50 (SW-620): 15100 nM (inactive)
- GI50 (TK-10): 90600 nM (inactive)
- GI50 (U-251): 12200 nM (inactive)
- GI50 (UACC-257): 22400 nM (inactive)
- GI50 (UACC-62): 29000 nM (inactive)
- GI50 (UO-31): > 10000 nM (inactive)
- GI50 (XF498): 19100 nM (inactive)
